Where two headings read alike, the source gives them in different places.
What was measured:
[1] = system: HS578T cells; test: MTT metabolization, inhibition of HS578T cell proliferation; format: cell-based; conditions: Homo sapiens, Hs-578T, read-out: Percentage inhibition Formula (III) mean
Description: These triple negative breast cancer cell lines were obtained from the American Type Culture Collection Cell Biology Collection (ATCC) (Manassas, Va.). The medium was changed every 2 days.
Cell proliferation and growth experiments were carried out using 3-(4,5-dimethylthiazol-2-yl)-2,5-diphenyltetrazolium bromide (MTT) uptake assays, where MTT is reduced to purple formazan by the mitochondria of living cells. Increase in cell number is detected by augmented MTT metabolization, and decrease in cell number is reflected by a decrease. […] The cells were treated with the drug at different concentrations to plot the dose-response curves in all cancer cell lines using in the study. […] After treatment, each well was replaced with 250 μL of fresh medium containing MTT ([…]) and incubated for 1 hour. The medium was then removed and 500 μL of dimethyl sulfoxide was added to each well. The plate was agitated in the dark for 5 minutes to dissolve the MTT-formazan crystals. The absorbance of the samples was recorded at 562 nm in a multi-well plate reader (BMG labtech). Results were plotted as the mean values of quadruplicates from a representative experiment that was repeated at least two independent times.
Combination index values less than 1 indicate synergism, values equal to 1 indicate an additive effect, whereas values greater than 1 indicate antagonism. Combination index values from three independent experiments were generated.

[2] = system: HS578T, BT549 and MDA-MB-231 cells; test: Three-dimensional growth in matrigel (spherical structures); format: cell-based
Description: For three-dimensional cell culture, the bottom of 24 multi-dish plates was covered with a thin ice-cold 4% Matrigel (BD Biosciences) layer and incubated at 37° C. for 20 minutes to allow the Matrigel to solidify. Matrigel was added to conventional DMEM. The desired cells were tripsinized (0.25% trypsin-EDTA solution (2.5 g/L of trypsin, 0.38 g/L of EDTA) collected and resuspended to a final concentration of 12.500 cls/mL in 2% Matrigel. The cell suspension was added over the solidified Matrigel layer and incubated at 37° C. The medium was changed after 4 days and the cell culture was daily visualized under a microscope for phenotype monitoring. The cells were cultured for 10 days.

[3] = system: HS578T, BT549 and MDA-MB-231 cells; test: Apoptosis by Annexin V staining, single agent; format: cell-based; conditions: 500 nM, 24 and 48 hours
Description: Cell cycle analyses and evaluation of apoptosis were performed by flow cytometry using propidium iodide and Annexin V, respectively.
For apoptosis analyses, HS578T, BT549 and MDA-MB-231 cell monolayers were incubated in trypsin-EDTA, washed twice with cold PBS, and then resuspended in binding buffer (10 mM HEPES free acid [pH 7.4], 140 mM NaCl, 2.5 mM CaCl2) at a concentration of 1×10^6 cells per mL. A total of 1×10^5 cells were incubated for 15 minutes in the dark with Annexin V-APC (BD Biosciences) and propidium iodide (PI) staining solution (5 μL Annexin V-[…], 10 μL of PI [[…] final concentration], 400 μL binding buffer).

[4] = system: MDA-MB-231 cells; test: Microarray analysis of mRNA and RT-PCR of DNA repair genes; format: cell-based; conditions: 500 nM, 24 h; confirmed by RT-PCR
Description: MDA-MB-231 cells were grown in DMEM with 10% of FBS, and when 70% confluent, cells were treated with 500 nM Formula (III) for 24 h. Total RNA was extracted and purified using the RNeasy Mini Kit (Qiagen). Double-stranded cDNA and biotinylated cRNA were synthesized using a T7-polyT primer and the BioArray RNA labeling kit (Enzo Life Sciences, Farmingdale, N.Y.), respectively. The labeled RNA was fragmented and hybridized to human oligonucleotide arrays (Human Gene ST Arrays) (Affymetrix, Santa Clara, Calif.) according to manufacturers instructions. For the microarray data analysis, Affymetrix CEL files from each of the two microarray hybridization experiments for the two conditions [untreated control and treated with 500 nM Formula (III)] were imported into the dChip software (Dana Farber Cancer Institute, Boston, Mass.). […] The list of genes was analyzed using functional annotation bioinformatics microarray analysis (DAVID), and gene set enrichment analyses (GSEA). […]
Total RNA was extracted from cells with Rneasy Mini Kit (QIAGEN) as recommended by the supplier. cDNAs were synthesized from […] of total RNA by using RevertAid H Minus First Strand cDNA synthesis Kit (Fermentas) in a total volume of […]. […] Samples were analyzed in triplicate and mRNA expression was normalized to GADPH […] and quantified by the comparative cycle threshold (Ct) method. […]

[5] = system: animal models; test: Studies in animal models; conditions: in vivo

Compound: C[C@]12O[C@H](C[C@@H](O)[C@H]1O)n1c3ccccc3c3c4c(c5c6ccccc6n2c5c31)C(=O)NC4=O [Formula (III)]
- percent inhibition of cell proliferation at 0.1 µM ([1]; Formula (III) 100 nM alone (Table 14)): 76.2%
- percent inhibition of cell proliferation at 0.1 µM ([1]; Formula (III) 100 nM alone (Table 15)): 93.5%
- percent inhibition of cell proliferation at 0.12 µM ([1]; Formula (III) 120 nM alone (Table 12)): 74.9%
- percent inhibition of cell proliferation at 0.12 µM ([1]; Formula (III) 120 nM alone): 74.9%
- percent inhibition of cell proliferation at 0.18 µM ([1]; Formula (III) 180 nM alone (Table 12)): 67.5%
- percent inhibition of cell proliferation at 0.18 µM ([1]; Formula (III) 180 nM alone): 67.5%
- percent inhibition of cell proliferation at 0.2 µM ([1]; Formula (III) 200 nM alone (Table 13)): 67.8%
- percent inhibition of cell proliferation at 0.2 µM ([1]; Formula (III) 200 nM alone (Table 14)): 72.4%
- percent inhibition of cell proliferation at 0.2 µM ([1]; Formula (III) 200 nM alone (Table 15)): 77.6%
- percent inhibition of cell proliferation at 0.24 µM ([1]; Formula (III) 240 nM alone (Table 12)): 50.8%
- percent inhibition of cell proliferation at 0.24 µM ([1]; Formula (III) 240 nM alone): 50.8%
- percent inhibition of cell proliferation at 0.26 µM ([1]; Formula (III) 260 nM alone (Table 13)): 59.9%
- percent inhibition of cell proliferation at 0.3 µM ([1]; Formula (III) 300 nM alone (Table 12)): 46.8%
- percent inhibition of cell proliferation at 0.3 µM ([1]; Formula (III) 300 nM alone (Table 13)): 52.2%
- percent inhibition of cell proliferation at 0.3 µM ([1]; Formula (III) 300 nM alone (Table 14)): 66.3%
- percent inhibition of cell proliferation at 0.3 µM ([1]; Formula (III) 300 nM alone (Table 15)): 72.3%
- percent inhibition of cell proliferation at 0.3 µM ([1]; Formula (III) 300 nM alone): 46.8%
- percent inhibition of cell proliferation at 0.38 µM ([1]; Formula (III) 380 nM alone (Table 13)): 48.9%
- percent inhibition of cell proliferation at 0.4 µM ([1]; Formula (III) 400 nM alone (Table 14)): 57.4%
- percent inhibition of cell proliferation at 0.4 µM ([1]; Formula (III) 400 nM alone (Table 15)): 66.6%
- diameter of spherical structures in matrigel [2]: strongly decreased the diameter of these spheres
- apoptosis (Annexin V staining) [3]: an increase at 48 hours, more evident in HS578T
- expression of genes involved in DNA repair [4]: increased expression of genes involved in DNA repair
- toxicities in animal models [5]: no evidence of toxicities

Reference: patent US9808469B2, “Antitumor activity of multi-kinase inhibitors in triple negative breast cancer” (ENTRECHEM, S.L, priority 2014, dated 2017)
